Laboratory results: patent US5607967A, “Treatment of alzheimer's disease with 5-(tetradecyloxy)-2-furan carboxylic acid” (Merck & Co., Inc., priority 1994, dated 1997)
Read-outs that look alike come from different tables or passages of the source.

Columns and labels:
acetyl-CoA carboxylase = conditions: high doses, i.e. 0.15% of diet; cited from earlier work
[1] = target: T1, GR/PPAR chimeric receptor (Mus musculus, UniProt P23204); assay: Ligand dependent transcription assay, GR/PPAR chimeric receptor with MMTV-luciferase reporter; format: cell-based
T1 construct: COS cells, MMTV-luciferase
T1 sequence (P23204 1-468): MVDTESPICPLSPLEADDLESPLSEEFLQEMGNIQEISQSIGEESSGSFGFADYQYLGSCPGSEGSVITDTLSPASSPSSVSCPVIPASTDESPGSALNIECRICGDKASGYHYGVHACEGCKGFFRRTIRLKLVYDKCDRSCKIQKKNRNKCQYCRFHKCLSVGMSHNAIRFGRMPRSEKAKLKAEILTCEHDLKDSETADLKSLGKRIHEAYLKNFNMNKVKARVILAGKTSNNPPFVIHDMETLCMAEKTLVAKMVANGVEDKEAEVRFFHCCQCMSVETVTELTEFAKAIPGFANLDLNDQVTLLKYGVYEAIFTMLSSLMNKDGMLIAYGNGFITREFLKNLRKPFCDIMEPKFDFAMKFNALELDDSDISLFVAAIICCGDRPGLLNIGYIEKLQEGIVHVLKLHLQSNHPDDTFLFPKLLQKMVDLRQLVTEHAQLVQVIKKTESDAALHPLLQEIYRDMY
T1 sequence (P06537 1-792 partner): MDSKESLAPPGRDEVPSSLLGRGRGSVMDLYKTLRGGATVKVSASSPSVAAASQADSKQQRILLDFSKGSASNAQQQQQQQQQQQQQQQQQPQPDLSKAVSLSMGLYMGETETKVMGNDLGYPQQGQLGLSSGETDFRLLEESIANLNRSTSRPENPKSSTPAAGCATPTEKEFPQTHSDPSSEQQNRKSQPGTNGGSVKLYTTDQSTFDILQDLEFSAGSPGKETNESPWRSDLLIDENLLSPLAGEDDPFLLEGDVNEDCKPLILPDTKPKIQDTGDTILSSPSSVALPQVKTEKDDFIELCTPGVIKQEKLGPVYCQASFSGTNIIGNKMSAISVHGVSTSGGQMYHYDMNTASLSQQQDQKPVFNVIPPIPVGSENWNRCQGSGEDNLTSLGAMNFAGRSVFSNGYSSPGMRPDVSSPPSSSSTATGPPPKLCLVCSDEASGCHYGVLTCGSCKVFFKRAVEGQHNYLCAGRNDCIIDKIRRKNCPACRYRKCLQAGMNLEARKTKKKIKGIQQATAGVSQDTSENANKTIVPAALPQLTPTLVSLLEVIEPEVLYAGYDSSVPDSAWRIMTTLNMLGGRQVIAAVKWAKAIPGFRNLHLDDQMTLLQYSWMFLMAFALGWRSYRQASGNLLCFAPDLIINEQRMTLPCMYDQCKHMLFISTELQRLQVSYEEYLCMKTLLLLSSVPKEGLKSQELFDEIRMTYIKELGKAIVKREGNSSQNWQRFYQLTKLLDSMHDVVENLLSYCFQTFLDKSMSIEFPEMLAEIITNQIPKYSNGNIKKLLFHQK
Protocol: Similar hybrid receptors GR/NER, GR/NUC and GR/PPAR, in identical expression plasmid backgrounds were prepared essentially as described for the construction of the GR/mPPAR and GR/NUC chimeric receptors in Schmidt et al., "Identification of a new member of the steroid hormone receptor superfamily that is activated by a peroxisome proliferator and fatty acids," Mol. Endocrinol., 6(10):1634-41, 1992, and in Boie et al., "Enantioselective activation of the peroxisome proliferator-activated receptor", J. Biol. Chem. 268(8):5530-4, 1993.
Briefly, the amino terminal portion of the mouse glucocorticoid receptor (mGR), that includes the DNA binding domain was fused to the putative ligand binding domains of the nuclear receptor NER, hNUC-I (Schmidt et al., 1992), mPPAR (Issenmann and Green, 1990) to form the respective chimeric receptors GR/NER, GR/NUC and GR/PPAR. The GR/NER chimeric receptor was constructed as described for the GR/NUC and GR/PPAR hybrid receptors (Schmidt et al., 1992; Boie et al). The cDNA sequences coding for amino acids Arg^155 and Glu^156 of the NER receptor were converted to the Xho I restriction site, that was later used for the ligation to the GR cDNA sequences that coded for the DNA binding domain. Thus, converting amino acid residues Arg^155 and Glu^156 of NER receptor to amino acid residues Ser^155 and His^156.
The ligand transcription assay mediated by GR/PPAR in COS cells was performed as described in Example 4. The cells were treated with TOFA and Cerulenin at 0.1, 1, 10 and 100 μM.

GR/NER chimeric receptor = assay: Activation of GR/NER in COS-7 cells (luciferase); conditions: 1440 min
Protocol: The ligand dependent transcription assays were performed as described in Example 4. The transfected COS cells were treated with dopamine, TOFA, or with the combination of TOFA and dopamine at the indicated concentrations and tested for luciferase activity.

[2] = COS, read-out: Fold of stimulation GR/PPAR

CCCCCCCCCCCCCCOc1ccc(C(=O)O)o1 [TOFA, 5-(tetradecyloxy)-2-furan carboxylic acid]
Fatty acid synthesis in vivo (acetyl-CoA carboxylase): inhibit fatty acid synthesis | Expression mediated by GR/PPAR [1]: stimulated expression | fold induction at 0.1 µM [1, 2]: 1.04 ± 0.14 | fold induction at 1 µM [1, 2]: 2.38 ± 0.16 | fold induction at 10 µM [1, 2]: 4.43 ± 0.23 | fold induction at 100 µM [1, 2]: 4.1 ± 0.52 | fold induction at 10 µM ([1]; read-out: Fold of stimulation GR/PPAR): 4.08 ± 0.1 | Fold of stimulation GR/NER (GR/NER chimeric receptor; TOFA 10 μM with dopamine 100 μM): 3.24 ± 0.06 fold | Fold of stimulation GR/NER (GR/NER chimeric receptor; TOFA 100 μM with dopamine 100 μM): 2.85 ± 0.07 fold | Fold of stimulation GR/NER (GR/NER chimeric receptor; TOFA 100 μM, no dopamine): 3.36 ± 0.04 fold
